Experimental findings from publication PMC8140105 (Scientific Reports, 2021) are described below.

One data set relates to BV-2 microglia cells. The data set is described as follows: IL-6 and TNFα determination (ELISA). Type of data set: cell-based, murine. Particulars: BV-2 cells, increasing concentrations, 20 h, ELISA of cell-free supernatant, n = 6. How it is done:
BV-2 cells were a kind gift from Prof. Alba Minelli and were grown in RPMI medium supplemented with 10% fetal bovine serum (FBS) and 1% penicillin-streptromycin solution (Life Technologies, Belgium). The cells were cultured in culture flasks (Greiner, Belgium) in an incubator set at 37 °C and 5% CO2. When confluent, cells were detached using a cell scraper and diluted 1:20 approximately every 4 days. Experiments were performed in serum-free DMEM without phenol red.
To investigate the microglia activating properties of the peptide, IL-6 and TNFα levels were determined in cell-free supernatants of BV-2 microglia cells after treatment. BV-2 cells (2 × 10^5 cells/well) were seeded in 24-well plates and treated with peptide for 20 h. ELISA was performed according to the supplier’s protocol (eBioscience, Vienna, Austria). Briefly, after incubation with biotinylated detection antibody, avidin-HRP conjugate and subsequently chromogenic tetramethylbenzidine (TMB) substrate were added. Absorbance was measured at 450 nm and 570 nm using the Multiskan Ascent 354 microplate reader (Thermofisher, Waltham, USA). Concentrations were determined using the standard curve generated using known concentrations of TNFα and IL-6.

A further data set concerns BV-2 cells. The data set is described as follows: Morphological analysis (ameboid versus branched cells). Type of data set: cell-based, murine. As to conditions: 20 h, n = 6. How it is done: We investigated the morphology since microglia change their morphology from a branched structure to a more round, ameboid structure after activation. BV-2 cells were seeded in 1 × 10^4 cells/well in a 24-well plate (360 µL); this way direct cell–cell contacts, which have an influence on morphology, are avoided. Four hours post-seeding, cells were treated with 40 µL peptide, placebo (H2O), medium or positive control (LPS 1 µg/mL). For the assessment of the morphology, one picture in the center of each well (100 × magnification) was taken after twenty hours with an Olympus CKX53 phase-contrast microscope equipped with an XC30 CCD camera (Olympus NV, Antwerp, Belgium). The number of branched and ameboid cells was counted with the cell counter plugin of ImageJ.

The next data set relates to SH-SY5Y neuroblast cells. Nature of the data set: MTT assay on SH-SY5Y neuroblast cells. Particulars: n = 6. Type of data set: cell-based. As for the experimental part: SH-SY5Y neuroblast cells (Sigma-Aldrich, Diegem, Belgium) were grown in F12:MEM (50/50 v/v) medium supplemented with 15% FBS, 1% non-essential amino acids (NEAA), 2 mM L-Glutamine and 1% penicillin/streptomycin solution (Life Technologies, Belgium) in an incubator set at 37 °C and 5% CO2. When confluent, cells were detached using 0.25% Trypsin–EDTA.
SH-SY5Y cells were seeded at a density of 5 × 10^4 cells/well in a 96-well plate and incubated for 24 h. Next, medium was removed and replaced by 200 µL conditioned medium of BV-2 cells which were treated for 20 h with PapRIV. After 24 h incubation, 20 µL MTT reagent (12 mM) was added and incubated for 3 h. Finally, the medium was removed and replaced by 150 µL DMSO and measured at 570 nm with a microplate reader (Thermofisher, Waltham, USA).

A short description of data set [1]: Ex vivo metabolization in serum, tissue and faeces homogenates. Type of data set: in vitro ADME, ICR-CD-1 mice. As to conditions: UPLC-UV/MS; for T1/2 / Metabolites: 37 °C; for T1/2: first order kinetics. As for the experimental part:
Peptide solution (0.1 mg/mL) was incubated with serum, brain, liver, kidney, colon or faeces homogenate at 37 °C. After 0, 5, 10, 30 and 60 min, aliquots were taken for UPLC-UV/MS analysis. Preparation of the tissue homogenates and UPLC-UV/MS parameters are given in supplementary information (Supplementary methods S3-S4). The half-live was calculated using the following equation:4 T1/2=-ln(2)/Slope where the slope is defined by linear regression assuming first order kinetics.
Supplementary method S3: Tissue homogenate preparation
Preparation of Krebs-Henseleit buffer (pH 7.4) (KH-buffer)
The powdered medium was dissolved in 900 mL water while stirring. To this solution, 0.3790 g CaCl2×2H2O and 2.098 g NaHCO3 was subsequently added while stirring. NaOH or HCl was used to adjust to pH 7.4. This solution was then further diluted to 1000 mL using ultrapure […]
Preparation of tissue homogenates
- The liver (n = 1), kidneys (n = 6), brains (n = 3), colons (n = 4) and faeces (0.196 g) of ICR-CD-1 mice were collected.
- After cleaning and rinsing the tissues using ice-cold KH buffer, the tissues were cut in little pieces and transferred into a 50 mL tube to which 36 mL ice-cold KH buffer was added.
- The tissues were then homogenized with at tissue homogenizer.
- After the larger particles were allowed to settle for about 30 minutes at 5°C, approximately 25 mL of the middle layer was transferred into a 50 mL Falcon tube using a plastic pipette.
- After shaking the homogenates, the homogenates were dispensed into 2 mL Eppendorf tubes, and stored at -35°C until use.
- The protein content of the homogenates were determined using the Pierce Modified Lowry […]
- Just before use, the homogenates were diluted to a protein concentration of 0.6 mg/mL (i.e.
300 µg / 500 µL) with KH buffer.
- Into a 1.5 ml Protein LoBind tube, 900 µl of serum/tissue extract (500 µl of homogenate/serum and 400 µl of KH buffer, pH 7.4) was transferred.
- After temperature-equilibration at 37°C for 15 min while shaking at 750 rpm, 100 µl of peptide solution (0.1 mg/mL) was added followed by continued incubation at 37°C (while shaking), with […] aliquots taken after 0, 5, 10, 30 and 60 minutes.
- The aliquots were immediately transferred into 500 µl Protein LoBind Eppendorf tubes containing 100 µl of 1% V/V trifluoroacetic acid solution in water, heated for 5 minutes at 95°C, and cooled for 30 minutes in an ice-bath.
- The samples were then centrifuged at 16,000 g for 5 minutes at 5°C.
- The supernatants was then analyzed by UPLC-UV/MS.
Supplementary method S4: UPLC-UV/MS parameters ex vivo metabolization
The analytical parameters of the UPLC-UV/MS method for the ex vivo metabolization are given […]
Table 3: Analytical parameters of UPLC method […]
Needle wash H2O/ACN/DMSO (45/45/10), post injection (6 s)
Seal wash Methanol/H2O (10/90)

Values joined by “and” are separate entries in the source; they are usually repeats but may differ in a detail not shown here. Identical values can stand only once.

Regarding “SDLPFEH [PapRIV, heptapeptide (SDLPFEH) quorum sensing peptide originating from the Bacillus cereus group; synthetic, purchased from GL Biochem]”, in the data set with BV-2 microglia cells, the IL-6 production result is listed as “induced”. Moreover, in the data set with BV-2 microglia cells, the TNFα production entry was “induced”. Also, the “fraction of ameboid cells” value in the data set on BV-2 cells is “increased”. For the same substance, the “viability of SH-SY5Y cells with conditioned medium of treated BV-2 cells” value in the data set on SH-SY5Y neuroblast cells (BV-2 treated 20 h, conditioned medium on SH-SY5Y 24 h) is listed as “significant decreased viability”. Also, the “toxicity of direct treatment of SH-SY5Y cells” value in the data set with SH-SY5Y neuroblast cells (direct peptide treatment) was “no significant toxic effects”. The T1/2 in data set [1] (mouse brain homogenate 0.6 mg/mL protein in KH buffer pH 7.4, peptide solution 0.1 mg/mL added, 0–60 min) was 522.9 min; in data set [1] (mouse faeces homogenate 0.6 mg/mL protein in KH buffer pH 7.4, peptide solution 0.1 mg/mL added, 0–60 min), 89.7 min; in data set [1] (mouse kidney homogenate 0.6 mg/mL protein in KH buffer pH 7.4, peptide solution 0.1 mg/mL added, 0–60 min) it was 20 min and 19.8 min; in data set [1] (mouse liver homogenate 0.6 mg/mL protein in KH buffer pH 7.4, peptide solution 0.1 mg/mL added, 0–60 min) it was 285.7 min; in data set [1] (serum (500 µl + 400 µl KH buffer pH 7.4 + 100 µl peptide solution 0.1 mg/mL), shaking 750 rpm, aliquots 0, 5, 10, 30, 60 min) it was 25 min and 24.8 min. Also, the Metabolites entry is given as “DLPFEH, LPFEH” in data set [1] (mouse brain homogenate, 0–60 min); “DLPFEH” in data set [1] (mouse faeces homogenate, 0–60 min); “DLPFEH, LPFEH” in data set [1] (mouse kidney homogenate, 0–60 min); “DLPFEH, LPFEH” in data set [1] (mouse liver homogenate, 0–60 min); “DLPFEH, LPFEH, LPFE, LPF, SDLPF, DLPF” in data set [1] (serum, 0–60 min). The “metabolization in colon tissue” value in data set [1] (mouse colon homogenate 0.6 mg/mL protein in KH buffer pH 7.4, 37 °C, 0–60 min) is on record as “no metabolization was observed”.
